Columns and labels:
[1] = Study of effect on skin blood circulation (laser Doppler flow-meter, smelling of test sample); format: in vivo, human; conditions: general statement of the inventors' findings; no data shown for substances other than the Arabian jasmine extract
Method: The skin blood circulation rate of fingers was measured by use of the laser Doppler flow-meter (ADVANCE LASER FLOW-METER ALF21), and the effect of the Arabian jasmine extract on the skin blood circulation was evaluated.
Six persons (men and women) were employed as subjects, and the test was made in a constant temperature and humidity room having been adjusted at a temperature of 22° C. and a humidity of 45%. Each of the subjects was seated on an easy chair and allowed to take a rest for 30 minutes. Thereafter, a probe of the flow-meter was fitted to the inner surface side of the third finger of the right hand of the subject, and a change in blood circulation rate with the passage of time was recorded. One sequence of measurement tests was composed of (A) a rest for three minutes, (B) attaching of an odorless cotton piece under the nose for three minutes, (C) a rest for three minutes, (D) attaching of a test sample-impregnated cotton piece under the nose for three minutes, (E) a rest for three minutes, (F) attaching of an odorless cotton piece under the nose for three minutes, and (G) a rest for three minutes. The blood circulation rate was measured successively during the one sequence. […]

[2] = Study of effect on skin temperature (smelling of test substance, body temperature logger); format: in vivo, human; conditions: for skin temperatures of the fingers: one person, vapor inhaled 3 min from impregnated cotton piece under the nose, 25° C., humidity 50%, FIG. 1; for skin temperatures of the cheeks / skin temperatures of the toes: smell taken with the nose, not illustrated by data
Method: The skin temperature of fingers was measured by use of 8ch Body Temperature Logger (supplied by Nikkiso-Therm Co., Ltd.), and a change in skin temperature due to smelling of a test substance was investigated. The effect on the peripheral skin temperature was thus studied. A solvent extract of a common jasmine (Jasminum officinale) belonging to the Jasminum genus in the Oleaceae family was used as a control, and the evaluation was made in the same manner.
A person was employed as a subject, and the test was made in a constant temperature and humidity room at a temperature of 25° C. and a humidity of 50%.
The subject was seated on an easy chair and allowed to take a rest for 30 minutes. […] The change in peripheral skin temperature was evaluated by use of a value (T value) obtained by subtracting a mean value of the skin temperatures at the two sites of the chest from the mean value of the skin temperatures at the two fingertip sites.
One sequence of measurement tests was composed of (A) a rest for three minutes, (B) attaching of an odorless cotton piece under the nose for three minutes, (C) a rest for three minutes, (D) attaching of a test sample-impregnated cotton piece under the nose for three minutes, (E) a rest for three minutes, (F) attaching of an odorless cotton piece under the nose for three minutes, and (G) a rest for three minutes. The skin temperature was measured successively during the one sequence, and the T values were calculated.
The T values obtained at the times of (B) and (F), at each of which the odorless cotton piece was attached, were taken as the controls and were compared with the T value obtained at the time of (D), at which the vapor of the test sample was inhaled. The effect of each substance on the skin temperature was thus investigated. Specifically, the formula shown below was utilized.
Skin temperature change (° C.)=T value (D)−(mean value of T value (B) and T value (F))

[3] = system: sympathetic nerve; experiment: Sympathetic nerve suppressing effect (confirmed by the inventors, no method given); conditions: statement without data

SMILES | rate of the skin blood circulation (summary of findings) [1] | skin temperatures of the fingers [2] | skin temperatures of the cheeks [2] | skin temperatures of the toes [2] | sympathetic nerve suppressing effect [3]
CCCCC1OC(=O)CC1C (stereo not shown) [3-methyloctano-4-lactone] | increases | increased | could be increased | could be increased | has a sympathetic nerve suppressing effect
CC(=O)OC1CC2CCC1(C)C2(C)C (stereo not shown) [bornyl acetate] | increases | increased | could be increased | could be increased | has a sympathetic nerve suppressing effect
